Test results reported in ChEMBL document CHEMBL4699540, “Discovery and structure activity relationships of 7-benzyl triazolopyridines as stable, selective, and reversible inhibitors of myeloperoxidase” (Bioorg Med Chem, 2020).

Key:
Neutrophil = conditions: Homo sapiens, time 5.0 min
[1] = Permeability of compound at pH 5.5 by PAMPA assay; type: ADME; conditions: read-out: permeability
[2] = Metabolic stability in mouse liver microsomes assessed as compound remaining; type: ADME, Microsome
[3] = Dissociation constant, pKa of the compound; type: physicochemical
Cytochrome P450 2C8 = target: T1, Cytochrome P450 2C8 (Homo sapiens, UniProt P10632); assay: Inhibition of CYP2C8 (unknown origin); type: ADME
T1 sequence (P10632 whole entry): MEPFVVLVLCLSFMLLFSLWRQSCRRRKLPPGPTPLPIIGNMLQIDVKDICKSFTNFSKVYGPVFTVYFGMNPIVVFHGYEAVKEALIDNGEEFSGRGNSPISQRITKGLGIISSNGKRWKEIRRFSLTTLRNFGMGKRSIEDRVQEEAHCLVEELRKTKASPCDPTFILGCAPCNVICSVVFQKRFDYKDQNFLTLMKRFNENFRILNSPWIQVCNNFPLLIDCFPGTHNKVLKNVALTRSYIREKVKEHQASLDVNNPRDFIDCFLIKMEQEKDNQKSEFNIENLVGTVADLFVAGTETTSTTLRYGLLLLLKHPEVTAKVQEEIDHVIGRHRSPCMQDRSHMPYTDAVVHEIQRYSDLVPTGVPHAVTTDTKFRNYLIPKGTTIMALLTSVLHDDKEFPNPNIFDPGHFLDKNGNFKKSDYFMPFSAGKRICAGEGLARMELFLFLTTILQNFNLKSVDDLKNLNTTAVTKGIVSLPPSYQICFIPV

[4] = AUCtot in CD-1 mouse at 3 mg/kg, po by LC/MS analysis; type: ADME, organism-based; parameters: time AUCmax, route oral, dose 3 mg/kg; conditions: in vivo
Cytochrome P450 2B6 = target: T2, Cytochrome P450 2B6 (Homo sapiens, UniProt P20813); assay: Inhibition of CYP2B6 (unknown origin); type: ADME
T2 sequence (P20813 whole entry): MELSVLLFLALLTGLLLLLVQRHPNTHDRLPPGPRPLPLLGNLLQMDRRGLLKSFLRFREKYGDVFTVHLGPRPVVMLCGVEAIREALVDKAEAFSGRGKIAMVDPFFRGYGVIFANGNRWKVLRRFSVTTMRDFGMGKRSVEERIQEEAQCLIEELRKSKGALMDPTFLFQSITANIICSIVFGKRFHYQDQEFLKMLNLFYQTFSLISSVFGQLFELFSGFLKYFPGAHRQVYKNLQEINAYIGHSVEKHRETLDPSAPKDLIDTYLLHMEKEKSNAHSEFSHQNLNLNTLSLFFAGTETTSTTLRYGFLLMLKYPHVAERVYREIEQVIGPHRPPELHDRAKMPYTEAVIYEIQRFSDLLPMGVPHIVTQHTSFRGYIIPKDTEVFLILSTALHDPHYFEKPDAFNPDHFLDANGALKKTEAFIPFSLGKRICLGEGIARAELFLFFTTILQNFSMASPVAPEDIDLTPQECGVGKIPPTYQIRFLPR

Cytochrome P450 1A2 = target: T3, Cytochrome P450 1A2 (Homo sapiens, UniProt P05177); assay: Inhibition of CYP1A2 (unknown origin); type: ADME
T3 sequence (P05177 whole entry): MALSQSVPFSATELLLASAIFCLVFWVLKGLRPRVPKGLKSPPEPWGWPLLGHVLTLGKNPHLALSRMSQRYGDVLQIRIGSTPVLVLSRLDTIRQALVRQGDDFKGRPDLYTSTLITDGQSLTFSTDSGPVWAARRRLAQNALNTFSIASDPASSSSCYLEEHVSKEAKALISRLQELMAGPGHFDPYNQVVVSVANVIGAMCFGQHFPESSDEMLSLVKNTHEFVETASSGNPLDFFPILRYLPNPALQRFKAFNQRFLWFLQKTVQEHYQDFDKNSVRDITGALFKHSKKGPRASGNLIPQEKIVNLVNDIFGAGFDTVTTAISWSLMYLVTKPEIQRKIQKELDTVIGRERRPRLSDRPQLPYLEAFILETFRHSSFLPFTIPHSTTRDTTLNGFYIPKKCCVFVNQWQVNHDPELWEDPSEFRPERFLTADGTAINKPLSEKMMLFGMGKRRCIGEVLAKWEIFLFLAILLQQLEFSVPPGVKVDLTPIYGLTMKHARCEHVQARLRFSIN

[5] = target: T4, Methylated-DNA--protein-cysteine methyltransferase (Homo sapiens, UniProt P16455); assay: Inhibition of human MGMT using 06-benzylguanine as substrate incubated for 30 mins by LC/MS analysis; conditions: 0.5 h
T4 sequence (P16455 whole entry): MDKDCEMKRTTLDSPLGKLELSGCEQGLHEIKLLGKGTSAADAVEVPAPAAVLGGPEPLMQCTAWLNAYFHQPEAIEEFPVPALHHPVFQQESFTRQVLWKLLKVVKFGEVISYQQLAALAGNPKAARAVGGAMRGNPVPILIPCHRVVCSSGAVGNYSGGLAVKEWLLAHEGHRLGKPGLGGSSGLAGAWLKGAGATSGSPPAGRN

[6] = Half life in CD-1 mouse at 3 mg/kg, po by LC/MS analysis; type: ADME, organism-based; conditions: in vivo
Myeloperoxidase [7] = target: T5, Myeloperoxidase (Homo sapiens, UniProt P05164); assay: Inhibition of recombinant human MPO incubated for 10 mins by amplex red dye based assay
T5 sequence (P05164 whole entry): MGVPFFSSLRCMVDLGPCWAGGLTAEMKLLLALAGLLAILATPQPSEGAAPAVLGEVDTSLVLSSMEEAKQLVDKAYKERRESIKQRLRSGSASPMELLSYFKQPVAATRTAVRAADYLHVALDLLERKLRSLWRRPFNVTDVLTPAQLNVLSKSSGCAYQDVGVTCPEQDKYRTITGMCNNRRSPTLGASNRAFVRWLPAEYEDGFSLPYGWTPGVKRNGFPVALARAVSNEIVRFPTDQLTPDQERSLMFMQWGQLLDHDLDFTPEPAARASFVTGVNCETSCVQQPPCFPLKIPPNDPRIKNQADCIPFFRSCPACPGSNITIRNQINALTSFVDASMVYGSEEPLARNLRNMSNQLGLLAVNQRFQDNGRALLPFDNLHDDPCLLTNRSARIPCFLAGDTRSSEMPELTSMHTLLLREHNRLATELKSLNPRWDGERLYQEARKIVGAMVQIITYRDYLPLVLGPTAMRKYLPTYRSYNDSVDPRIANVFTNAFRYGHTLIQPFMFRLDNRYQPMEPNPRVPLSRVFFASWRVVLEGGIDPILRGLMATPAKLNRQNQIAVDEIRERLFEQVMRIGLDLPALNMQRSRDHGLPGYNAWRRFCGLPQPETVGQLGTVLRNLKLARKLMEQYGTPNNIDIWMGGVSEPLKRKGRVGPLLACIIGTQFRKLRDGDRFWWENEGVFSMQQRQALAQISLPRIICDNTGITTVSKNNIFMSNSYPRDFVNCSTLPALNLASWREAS

[8] = Metabolic stability in rat liver microsomes assessed as compound remaining; type: ADME, Microsome
[9] = Binding affinity to human neutrophil MPO delta (1-95) measured for 5 mins by SPR assay
Cytochrome P450 2D6 = Cytochrome P450 2D6 (Homo sapiens, UniProt P10635); assay: Inhibition of CYP2D6 (unknown origin); type: ADME
Cytochrome P450 3A4 = Cytochrome P450 3A4 (Homo sapiens, UniProt P08684); assay: Inhibition of CYP3A4 (unknown origin); type: ADME
[10] = Metabolic stability in human liver microsomes assessed as compound remaining; type: ADME, Microsome
[11] = Permeability of compound at pH 7.4 by PAMPA assay; type: ADME; conditions: read-out: permeability
Myeloperoxidase [12] = target: T6, Myeloperoxidase (Mus musculus, UniProt P11247); assay: Inhibition of PMA-induced MPO in mouse Neutrophil incubated for 3 mins by luminometry; type: tissue-based
T6 sequence (P11247 whole entry): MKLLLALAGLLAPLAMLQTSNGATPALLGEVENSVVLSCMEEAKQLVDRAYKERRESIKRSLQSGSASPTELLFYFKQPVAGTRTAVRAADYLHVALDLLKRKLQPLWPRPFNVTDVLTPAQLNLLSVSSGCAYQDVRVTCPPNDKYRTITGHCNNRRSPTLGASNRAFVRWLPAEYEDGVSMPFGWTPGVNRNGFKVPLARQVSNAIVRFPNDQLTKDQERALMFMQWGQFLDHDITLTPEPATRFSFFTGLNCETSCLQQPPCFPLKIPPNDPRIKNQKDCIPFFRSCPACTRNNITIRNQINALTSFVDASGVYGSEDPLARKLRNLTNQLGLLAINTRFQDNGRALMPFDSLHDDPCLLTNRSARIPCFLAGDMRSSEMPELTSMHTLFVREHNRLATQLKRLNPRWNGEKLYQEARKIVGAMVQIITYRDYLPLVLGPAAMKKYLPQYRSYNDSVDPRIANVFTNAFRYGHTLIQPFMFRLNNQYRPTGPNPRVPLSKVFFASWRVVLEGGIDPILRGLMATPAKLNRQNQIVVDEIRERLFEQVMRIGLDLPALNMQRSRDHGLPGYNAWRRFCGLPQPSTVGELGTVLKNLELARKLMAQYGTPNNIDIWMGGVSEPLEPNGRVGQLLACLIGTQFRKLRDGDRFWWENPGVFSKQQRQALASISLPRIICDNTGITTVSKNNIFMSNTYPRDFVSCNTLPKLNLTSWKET

Sequence of Cytochrome P450 3A4 (P08684 whole entry): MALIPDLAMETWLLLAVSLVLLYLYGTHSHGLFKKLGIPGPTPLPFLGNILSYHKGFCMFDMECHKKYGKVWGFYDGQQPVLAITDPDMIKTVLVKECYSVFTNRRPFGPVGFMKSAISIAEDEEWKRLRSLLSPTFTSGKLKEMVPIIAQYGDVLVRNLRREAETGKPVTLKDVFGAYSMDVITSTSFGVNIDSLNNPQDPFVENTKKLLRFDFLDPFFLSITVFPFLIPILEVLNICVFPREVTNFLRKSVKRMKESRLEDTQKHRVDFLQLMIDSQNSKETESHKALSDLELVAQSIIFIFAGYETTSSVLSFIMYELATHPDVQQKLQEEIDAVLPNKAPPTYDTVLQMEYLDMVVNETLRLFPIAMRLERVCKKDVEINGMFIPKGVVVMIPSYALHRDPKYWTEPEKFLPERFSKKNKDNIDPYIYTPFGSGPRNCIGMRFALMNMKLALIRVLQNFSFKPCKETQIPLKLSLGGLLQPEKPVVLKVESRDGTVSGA
Sequence of Cytochrome P450 2D6 (P10635 whole entry): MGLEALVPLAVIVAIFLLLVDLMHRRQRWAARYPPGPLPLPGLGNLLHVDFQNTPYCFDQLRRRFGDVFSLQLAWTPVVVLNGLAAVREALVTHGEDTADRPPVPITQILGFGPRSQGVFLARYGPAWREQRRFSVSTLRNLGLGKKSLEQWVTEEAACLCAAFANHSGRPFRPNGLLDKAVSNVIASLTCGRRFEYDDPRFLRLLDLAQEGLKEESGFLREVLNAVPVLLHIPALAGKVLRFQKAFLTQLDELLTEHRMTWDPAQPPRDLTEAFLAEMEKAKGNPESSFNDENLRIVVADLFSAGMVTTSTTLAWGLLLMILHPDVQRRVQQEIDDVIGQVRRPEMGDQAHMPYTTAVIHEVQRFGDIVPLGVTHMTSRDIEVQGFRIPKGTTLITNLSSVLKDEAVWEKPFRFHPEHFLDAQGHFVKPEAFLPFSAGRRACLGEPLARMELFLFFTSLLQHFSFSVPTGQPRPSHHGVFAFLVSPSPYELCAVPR

| Structure (SMILES) | Ka (Neutrophil) | Kdiss (Neutrophil) | Papp [1] [×10⁻⁶ cm/s] | Stabilty [2] [%] | pKa [3] | IC50 (Cytochrome P450 2C8) [µM] | AUC [4] [µM·h] | IC50 (Cytochrome P450 2B6) [µM] | IC50 (Cytochrome P450 1A2) [µM] | inhibition (INH) [5] | half-life [6] [h] | IC50 (Myeloperoxidase [7]) [µM] | Stabilty [8] [%] | Kd [9] [µM] | IC50 (Cytochrome P450 2D6) [µM] | IC50 (Cytochrome P450 3A4) [µM] | Stabilty [10] [%] | Papp [11] [×10⁻⁶ cm/s] | IC50 (Myeloperoxidase [12]) [µM] |
| --- | --- | --- | --- | --- | --- | --- | --- | --- | --- | --- | --- | --- | --- | --- | --- | --- | --- | --- | --- |
| Nc1nc(OCc2ccccc2)c2[nH]nnc2n1 | 1.3 10^3/M.s | 0.72 10^-3/s | 42 | 80 | 6.6 | > 10 | 22.2 | > 10 | > 10 | Active | 2.4 | 0.103 | 95 | 0.547 | > 10 | > 10 | 93 | 16.7 |  |
| O=c1[nH]c(=S)n(C[C@H]2CCCO2)c2nc[nH]c12 |  |  |  |  |  |  |  |  |  |  |  |  |  |  |  |  |  |  | 32.5 |
